# In paper PMC11302339, “A series of pyrimidine-based antifungals with anti-mold activity disrupt ER function in Aspergillus fumigatus” (Microbiology Spectrum, 2024):
# Where two headings read alike, the source gives them in different places.
# Tests used:
# [1] = Pharmacokinetics in mice (serum/plasma and brain); assay type: in vivo, CD-1 mice; details: single 10 mg/kg intraperitoneal; for Cmax / half-life: female, CD-1, mouse, ip, CD1 mice; for half-life: read-out: half-life (T1/2)
# Protocol: Twenty-one female CD-1 mice were dosed intraperitoneally with 10 mg/kg 1. Whole blood was collected in a syringe coated with ACD. Plasma was processed from whole blood by centrifugation at 10,000 rpm for 10 min. Brain tissue was harvested and gently washed with 1× PBS to remove residual circulating blood. The tissue was weighed and snap frozen in liquid nitrogen.
# For the standards and quality controls, 98.0 and 98.8 µL of blank vendor plasma were added to a microfuge tube and spiked with 2.0 and 1.2 µL of initial standard. Standards, quality controls, and samples of 100 µL were then precipitated with 200 µL of methanol containing 0.15% formic acid and […]. The samples were vortexed 15 s, incubated at room temperature for 10 min, and centrifuged at 13,200 rpm twice in a standard microcentrifuge. The supernatant was then analyzed by LC-MS/MS. The vendor supplied the plasma used in standards and quality controls (QCs; lot # MSE460968, ACD anti-coagulant; Bioreclamation, LLC).
# Brain tissues were homogenized in 3× volume of PBS. For the standards and quality control samples, 98.0 and 98.8 µL of pooled blank brain were added to a microfuge tube and spiked with 2.0 or 1.2 µL of initial standard. Standards, quality control samples of 100 µL, were then precipitated with 200 µL of methanol containing 0.15% formic acid and 12.5 ng/mL IS (final concentrations). The samples were vortexed for 15 s, incubated at room temperature for 10 min, and centrifuged at 13,200 rpm twice in a standard microcentrifuge. The supernatant was then analyzed by LC-MS/MS.
# A. fumigatus ∆ireA = test: Susceptibility of ∆ireA mutant on GMM plates; assay type: cell-based, Aspergillus fumigatus; details: 72 hours at 30°C, colony diameter ratio
# Protocol: For Aspergillus fumigatus, 5 µL of 1 × 10^4 CEA10 conidia was spotted at the center of GMM plates containing DMSO or 1 µg/mL 1 in combination with DTT, brefeldin A, or tunicamycin. Plates were incubated at 37°C for 72 hours. Representative images of two independent experiments with three biological replicates each were obtained. For Ire1 strains, the cells were prepared as described above but were incubated at 30°C.
# [2] = Protein binding analysis, plasma; assay type: in vitro ADME; details: mouse, mouse plasma diluted 1:10 with PBS
smiles,measurement,setting,value
OC1CC(c2cc(N3CCC(CCc4ccccc4)CC3)ncn2)C1 (stereo not shown) [compound 1],time of Cmax post-administration,[1]; brain tissue,10 min
same,Cmax,[1]; brain tissue,2000 ng/g
same,half-life,[1]; brain tissue,4.92 h
same,Cmax,[1]; serum/plasma,491 ng/mL
same,half-life,[1]; serum/plasma,0.383 h
same,time of Cmax post-administration,[1]; serum,10 min
same,blood-brain barrier penetration,[1]; mice,penetrated the blood-brain barrier
same,susceptibility of ∆ireA mutant vs wild type,A. fumigatus ∆ireA,same susceptibility as wild type
same,"fraction unbound at 6 h, 5 µM",[2]; read-out: Corrected % Protein binding (converted),0.0285
same,"fraction unbound at 6 h, 5 µM","[2]; uncorrected (plasma diluted 1:10), read-out: % Protein binding (converted)",0.227
